Data as given in patent US20130017537A1, “METHOD OF IN-VITRO IMMUNOASSAY” (BASF Beauty Care Solutions France S.A.S., priority 2011, published 2013).

Tests used:
Assay type in all cases: cell-based, human
[1] = test system: extracellular procollagen; test: Procollagen ELISA (PIPc kit) on collected culture medium
Protocol: The method described in example 1 was applied and the culture medium and lysis medium collected were analysed. On the collected culture medium, a procollagen assay was carried out (PIPc kit, TAKARA) by ELISA for determining the amount of extracellular procollagen (Table 4.1) The amounts of collagen and procollagen measured were rationalized to the amount of DNA present in each well. In experiment 6, procollagen was assayed in the culture medium collected in step b) in accordance with the method described in example 4.

collagen I = test: Immunohistochemical analysis of collagen I (confocal fluorescence); settings: 50 μM; 72 h
Protocol: After 72 h culture postconfluency, the culture medium was removed and immunolabelling was performed. The polyclonal anti-collagen I primary antibody was applied, then after removal of the medium the secondary antibody conjugated to a fluorochrome alexa 488 is added. The fluorescence was examined under the LSM700 confocal microscope.

[2] = test system: intracellular procollagen; test: Procollagen ELISA (PIPc kit) on collected lysis medium; settings: for Procoll Mean (intracellular procollagen) / Ratio: Procoll/DNA Mean / Stat Mean (Procoll/DNA, control = 100.00): lysis medium
Protocol: The method described in example 1 was applied and the culture medium and lysis medium collected were analysed. On the collected lysis medium, a procollagen assay (PIPc kit, TAKARA) by ELISA is carried out for determining the amount of intracellular procollagen (Table 4.2). A DNA assay (Picogreen kit, Invitrogen) was also carried out for rationalizing all of the measurements in each well to the quantity of viable cells. The amounts of collagen and procollagen measured were rationalized to the amount of DNA present in each well.

[3] = test system: type I collagen in the ECM; test: Assay of type I collagen in the ECM (anticollagen I antibody, europium TRF, Delfia) after NH4OH lysis of fibroblasts; set-up: key to Coll I Mean: europium fluorescence normalized to measured dsDNA; settings: for Coll I (RFU) Mean: 48 hours, donor; for Versus control Mean (Coll I): control = 100.00; for Coll I Mean / Ratio: Coll I/DNA Mean / Stat Mean (Coll I/DNA, control = 100.00): ECM
Protocol: After 48 hours of culture postconfluency, the culture medium was removed and discarded. A lysis step was carried out: 110 μl of an ammonium hydroxide solution at 20 mM for 10 minutes at room temperature and with stirring. The lysate was collected and analysed. The double-stranded DNA contained in the lysate was assayed by using the bisbenzimide method (Picogreen Kit, Invitrogen). The collagen in the ECM was assayed directly on the ECM by using an anticollagen I antibody. A secondary antibody conjugated to europium was used with a detection reagent and the fluorescence was measured. (Delfia® kit—Perkin Elmer). The fluorescence results were rationalized relative to the measured dsDNA rate. The experiment was carried out according to the protocol described in example 1 with fibroblasts extracted from a biopsy from a donor. […] The experiment was carried out according to the protocol described in example 1 with fibroblasts extracted from a biopsy of a donor.

[4] = test system: type V collagen in the ECM; test: Assay of type V collagen in the ECM (anticollagen V antibody, europium TRF, Delfia) after NH4OH lysis of fibroblasts; settings: for Coll V (RFU) Mean: 48 hours, donor; for Versus control Mean (Coll V): control = 100.00
Protocol: A lysis step was carried out: 110 μl of an ammonium hydroxide solution at 20 mM for 10 minutes at room temperature and with stirring. The collagen V in the ECM was assayed directly on the ECM by using an anticollagen V antibody. A secondary antibody conjugated to europium was used with a detection reagent and the fluorescence was measured. (Delfia® kit—Perkin Elmer). The experiment was carried out according to the protocol described in example 1 with fibroblasts extracted from a biopsy from a donor.

[5] = ascorbic acid 0.1 μM, Example 4
[6] = ascorbic acid 100 μM, Example 5
[7] = ascorbic acid 100 μM, Example 4

Structure (SMILES): O=C1O[C@H]([C@@H](O)CO)C(O)=C1O [Ascorbic acid, ascorbic acid]
- Procoll (ng/ml) Mean ([1]; 50 μM, Example 7): 1983 ng/mL
- Ratio: Procoll/DNA Mean ([1]; 50 μM, Example 7): 4.01
- Versus control Mean (ProColl/DNA) ([1]; 50 μM, Example 7, control = 100): 171.17
- Procoll Mean (extracellular procollagen) ([1]; ascorbic acid 0.1 μM): 1987 ng/mL
- Ratio: Procoll/DNA Mean ([1]; ascorbic acid 0.1 μM): 6.26
- Stat Mean (Procoll/DNA, control = 100.00) ([1]; ascorbic acid 0.1 μM): 100.75
- Procoll Mean (extracellular procollagen) ([1]; ascorbic acid 1 μM): 1983 ng/mL
- Ratio: Procoll/DNA Mean ([1]; ascorbic acid 1 μM): 6.57
- Stat Mean (Procoll/DNA, control = 100.00) ([1]; ascorbic acid 1 μM): 105.74
- Procoll Mean (extracellular procollagen) ([1]; ascorbic acid 10 μM): 2756 ng/mL
- Ratio: Procoll/DNA Mean ([1]; ascorbic acid 10 μM): 9.83
- Stat Mean (Procoll/DNA, control = 100.00) ([1]; ascorbic acid 10 μM): 158.16
- Procoll Mean (extracellular procollagen) ([1]; ascorbic acid 50 μM): 2852 ng/mL
- Ratio: Procoll/DNA Mean ([1]; ascorbic acid 50 μM): 10.25
- Stat Mean (Procoll/DNA, control = 100.00) ([1]; ascorbic acid 50 μM): 164.89
- Procoll Mean (extracellular procollagen) ([1]; ascorbic acid 100 μM): 2845 ng/mL
- Ratio: Procoll/DNA Mean ([1]; ascorbic acid 100 μM): 9.78
- Stat Mean (Procoll/DNA, control = 100.00) ([1]; ascorbic acid 100 μM): 157.30
- Area/cells % (control = 100) (collagen I): 114.96%
- Area/cells Mean (collagen I fluorescence) (collagen I): 124238.13
- procollagen concentration in the intracellular compartment ([2]; Example 4): less than that observed with the untreated control
- Procoll Mean (intracellular procollagen) ([2]; ascorbic acid 0.1 μM): 116 ng/mL
- Ratio: Procoll/DNA Mean ([2]; ascorbic acid 0.1 μM): 0.37
- Stat Mean (Procoll/DNA, control = 100.00) ([2]; ascorbic acid 0.1 μM): 102.85
- Procoll Mean (intracellular procollagen) ([2]; ascorbic acid 1 μM): 108 ng/mL
- Ratio: Procoll/DNA Mean ([2]; ascorbic acid 1 μM): 0.36
- Stat Mean (Procoll/DNA, control = 100.00) ([2]; ascorbic acid 1 μM): 100.76
- Procoll Mean (intracellular procollagen) ([2]; ascorbic acid 10 μM): 114 ng/mL
- Ratio: Procoll/DNA Mean ([2]; ascorbic acid 10 μM): 0.41
- Stat Mean (Procoll/DNA, control = 100.00) ([2]; ascorbic acid 10 μM): 108.02
- Procoll Mean (intracellular procollagen) ([2]; ascorbic acid 50 μM): 60 ng/mL
- Ratio: Procoll/DNA Mean ([2]; ascorbic acid 50 μM): 0.22
- Stat Mean (Procoll/DNA, control = 100.00) ([2]; ascorbic acid 50 μM): 60.83
- Procoll Mean (intracellular procollagen) ([2]; ascorbic acid 100 μM): 66 ng/mL
- Ratio: Procoll/DNA Mean ([2]; ascorbic acid 100 μM): 0.23
- Stat Mean (Procoll/DNA, control = 100.00) ([2]; ascorbic acid 100 μM): 63.69
- Coll I (RFU) Mean ([3]; 50 μM, Example 6): 169132 RFU
- Ratio: Coll/DNA Mean (Coll I) ([3]; 50 μM, Example 6): 340.49
- Versus control Mean (Coll I) ([3]; 50 μM, Example 6): 119.53
- effect of stimulation on the content of collagen I in the ECM (dose dependence) ([3]; Example 4, 0.1 to 100 μM): dose-dependent up to 50 μM
- optimum dose for efficacy, collagen I assay ([3]; Example 5, 5 to 100 μM tested): 50 µM
- stimulation of the synthesis of collagen I and V ([3]; Example 5, collagen I and V in the ECM): induces stimulation of the synthesis of collagen I and V with a significant dose effect
- amount of collagen I in the ECM ([3]; Example 6, ascorbic acid at 50 μM, vegetable extract 1% (v/v)): significant increase
- Coll I Mean [3, 5]: 74156
- Ratio: Coll I/DNA Mean [3, 5]: 233.65
- Stat Mean (Coll I/DNA, control = 100.00) [3, 5]: 105.33
- Coll I Mean ([3]; ascorbic acid 1 μM, Example 4): 74419
- Ratio: Coll I/DNA Mean ([3]; ascorbic acid 1 μM, Example 4): 246.46
- Stat Mean (Coll I/DNA, control = 100.00) ([3]; ascorbic acid 1 μM, Example 4): 111.10
- Coll I (RFU) Mean ([3]; ascorbic acid 5 μM, Example 5): 59802 RFU
- Ratio: Coll/DNA Mean (Coll I) ([3]; ascorbic acid 5 μM, Example 5): 273.40
- Versus control Mean (Coll I) ([3]; ascorbic acid 5 μM, Example 5): 125.69
- Coll I (RFU) Mean ([3]; ascorbic acid 10 μM, Example 5): 59569 RFU
- Coll I Mean ([3]; ascorbic acid 10 μM, Example 4): 78694
- Ratio: Coll I/DNA Mean ([3]; ascorbic acid 10 μM, Example 4): 280.82
- Stat Mean (Coll I/DNA, control = 100.00) ([3]; ascorbic acid 10 μM, Example 4): 126.59
- Ratio: Coll/DNA Mean (Coll I) ([3]; ascorbic acid 10 μM, Example 5): 239.53
- Versus control Mean (Coll I) ([3]; ascorbic acid 10 μM, Example 5): 110.12
- Coll I (RFU) Mean ([3]; ascorbic acid 25 μM, Example 5): 59088 RFU
- Ratio: Coll/DNA Mean (Coll I) ([3]; ascorbic acid 25 μM, Example 5): 254.84
- Versus control Mean (Coll I) ([3]; ascorbic acid 25 μM, Example 5): 117.16
- Coll I (RFU) Mean ([3]; ascorbic acid 50 μM, Example 5): 54454 RFU
- Coll I Mean ([3]; ascorbic acid 50 μM, Example 4): 79146
- Ratio: Coll I/DNA Mean ([3]; ascorbic acid 50 μM, Example 4): 284.31
- Stat Mean (Coll I/DNA, control = 100.00) ([3]; ascorbic acid 50 μM, Example 4): 128.17
- Ratio: Coll/DNA Mean (Coll I) ([3]; ascorbic acid 50 μM, Example 5): 309.87
- Versus control Mean (Coll I) ([3]; ascorbic acid 50 μM, Example 5): 130.66
- Coll I (RFU) Mean [3, 6]: 50765 RFU
- Coll I Mean [3, 7]: 79796
- Ratio: Coll I/DNA Mean [3, 7]: 273.96
- Stat Mean (Coll I/DNA, control = 100.00) [3, 7]: 123.50
- Ratio: Coll/DNA Mean (Coll I) [3, 6]: 249.31
- Versus control Mean (Coll I) [3, 6]: 114.62
- Ratio: Coll/DNA Mean (Coll V) ([4]; ascorbic acid 5 μM): 59.83
- Coll V (RFU) Mean ([4]; ascorbic acid 5 μM): 12644 RFU
- Versus control Mean (Coll V) ([4]; ascorbic acid 5 μM): 117.16
- Ratio: Coll/DNA Mean (Coll V) ([4]; ascorbic acid 10 μM): 58.76
- Coll V (RFU) Mean ([4]; ascorbic acid 10 μM): 14127 RFU
- Versus control Mean (Coll V) ([4]; ascorbic acid 10 μM): 115.06
- Ratio: Coll/DNA Mean (Coll V) ([4]; ascorbic acid 25 μM): 68.69
- Coll V (RFU) Mean ([4]; ascorbic acid 25 μM): 16172 RFU
- Versus control Mean (Coll V) ([4]; ascorbic acid 25 μM): 134.49
- Ratio: Coll/DNA Mean (Coll V) ([4]; ascorbic acid 50 μM): 68.86
- Coll V (RFU) Mean ([4]; ascorbic acid 50 μM): 16230 RFU
- Versus control Mean (Coll V) ([4]; ascorbic acid 50 μM): 134.82
- Ratio: Coll/DNA Mean (Coll V) ([4]; ascorbic acid 100 μM): 73.12
- Coll V (RFU) Mean ([4]; ascorbic acid 100 μM): 17994 RFU
- Versus control Mean (Coll V) ([4]; ascorbic acid 100 μM): 143.17
